# Where two headings read alike, the source gives them in different places.
# Tests used:
# Type in all cases: cell-based
# [1] = biological target: T1, GR (Homo sapiens, UniProt P04150); assay: co-transfection assay, GR antagonist
# T1 construct: expressed in transfected cells; host or cells: CV-1 cells
# T1 sequence (P04150 1-777): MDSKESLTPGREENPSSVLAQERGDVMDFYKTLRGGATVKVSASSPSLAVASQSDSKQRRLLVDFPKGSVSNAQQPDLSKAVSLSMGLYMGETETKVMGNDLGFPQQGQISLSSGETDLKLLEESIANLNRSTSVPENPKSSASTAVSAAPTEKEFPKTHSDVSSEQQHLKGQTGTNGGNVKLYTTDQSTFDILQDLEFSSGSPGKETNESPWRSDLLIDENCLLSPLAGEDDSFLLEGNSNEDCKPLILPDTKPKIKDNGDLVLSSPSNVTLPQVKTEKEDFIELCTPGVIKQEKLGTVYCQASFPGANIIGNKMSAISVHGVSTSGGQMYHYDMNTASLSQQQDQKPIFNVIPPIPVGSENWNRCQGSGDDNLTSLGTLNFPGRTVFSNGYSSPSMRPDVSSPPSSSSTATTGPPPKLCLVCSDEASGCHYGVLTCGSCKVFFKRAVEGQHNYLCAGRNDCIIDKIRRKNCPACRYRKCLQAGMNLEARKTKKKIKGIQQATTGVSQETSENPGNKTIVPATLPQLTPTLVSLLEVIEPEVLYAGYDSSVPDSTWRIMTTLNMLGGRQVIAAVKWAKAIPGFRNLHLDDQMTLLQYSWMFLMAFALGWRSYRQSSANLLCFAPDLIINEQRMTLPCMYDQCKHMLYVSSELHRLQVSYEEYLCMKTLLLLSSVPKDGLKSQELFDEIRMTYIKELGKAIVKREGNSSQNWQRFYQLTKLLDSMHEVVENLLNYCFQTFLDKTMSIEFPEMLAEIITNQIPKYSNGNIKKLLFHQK
# Protocol: (§1) CV-1 cells (African green monkey kidney fibroblasts) were cultured in the presence of Dulbecco's Modified Eagle Medium (DMEM) supplemented with 10% charcoal resin-stripped fetal bovine serum (CH-FBS) then transferred to 96-well microtiter plates one day prior to transfection.
# (§2) Three to four replicates were used for each sample.
# (§3) After 40 hours, the cells were washed with PBS, lysed with a Triton X-100-based buffer and assayed for LUC and β-Gal activities using a luminometer or spectrophotometer, respectively. For each replicate, the normalized response (NR) was calculated as: […]
# [2] = biological target: T2, PR (Homo sapiens, UniProt P06401); assay: co-transfection assay, PR antagonist (in presence of progesterone)
# T2 construct: expressed in transfected cells; host or cells: CV-1 cells
# T2 sequence (P06401 1-933): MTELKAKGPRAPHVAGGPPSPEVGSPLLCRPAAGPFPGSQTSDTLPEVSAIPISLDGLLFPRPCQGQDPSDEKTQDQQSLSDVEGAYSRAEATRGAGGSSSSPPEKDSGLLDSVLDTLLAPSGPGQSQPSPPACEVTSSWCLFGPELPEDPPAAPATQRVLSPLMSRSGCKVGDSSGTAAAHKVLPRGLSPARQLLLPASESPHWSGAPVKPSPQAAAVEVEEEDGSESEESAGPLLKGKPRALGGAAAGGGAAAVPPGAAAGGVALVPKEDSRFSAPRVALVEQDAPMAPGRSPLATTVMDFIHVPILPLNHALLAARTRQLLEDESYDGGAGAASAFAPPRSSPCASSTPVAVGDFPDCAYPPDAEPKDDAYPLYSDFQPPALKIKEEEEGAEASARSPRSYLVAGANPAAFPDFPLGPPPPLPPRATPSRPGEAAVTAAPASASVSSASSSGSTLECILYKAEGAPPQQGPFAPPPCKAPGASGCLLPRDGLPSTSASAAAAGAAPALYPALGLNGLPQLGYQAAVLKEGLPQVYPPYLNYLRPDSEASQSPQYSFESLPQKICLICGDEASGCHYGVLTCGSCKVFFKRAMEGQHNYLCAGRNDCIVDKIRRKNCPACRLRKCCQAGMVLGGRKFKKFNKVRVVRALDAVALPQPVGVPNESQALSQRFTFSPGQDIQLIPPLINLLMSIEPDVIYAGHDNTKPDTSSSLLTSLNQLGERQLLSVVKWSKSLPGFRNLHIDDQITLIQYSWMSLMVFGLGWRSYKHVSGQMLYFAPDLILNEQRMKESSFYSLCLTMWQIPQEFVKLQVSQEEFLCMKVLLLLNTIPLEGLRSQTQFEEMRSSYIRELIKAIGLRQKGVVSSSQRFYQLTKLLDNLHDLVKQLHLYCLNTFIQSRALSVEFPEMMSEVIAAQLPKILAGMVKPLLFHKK
# Protocol: as §1, §2, §3
# [3] = biological target: T3, MR (Homo sapiens, UniProt P08235); assay: co-transfection assay, MR antagonist
# T3 construct: expressed in transfected cells; host or cells: CV-1 cells
# T3 sequence (P08235 1-984): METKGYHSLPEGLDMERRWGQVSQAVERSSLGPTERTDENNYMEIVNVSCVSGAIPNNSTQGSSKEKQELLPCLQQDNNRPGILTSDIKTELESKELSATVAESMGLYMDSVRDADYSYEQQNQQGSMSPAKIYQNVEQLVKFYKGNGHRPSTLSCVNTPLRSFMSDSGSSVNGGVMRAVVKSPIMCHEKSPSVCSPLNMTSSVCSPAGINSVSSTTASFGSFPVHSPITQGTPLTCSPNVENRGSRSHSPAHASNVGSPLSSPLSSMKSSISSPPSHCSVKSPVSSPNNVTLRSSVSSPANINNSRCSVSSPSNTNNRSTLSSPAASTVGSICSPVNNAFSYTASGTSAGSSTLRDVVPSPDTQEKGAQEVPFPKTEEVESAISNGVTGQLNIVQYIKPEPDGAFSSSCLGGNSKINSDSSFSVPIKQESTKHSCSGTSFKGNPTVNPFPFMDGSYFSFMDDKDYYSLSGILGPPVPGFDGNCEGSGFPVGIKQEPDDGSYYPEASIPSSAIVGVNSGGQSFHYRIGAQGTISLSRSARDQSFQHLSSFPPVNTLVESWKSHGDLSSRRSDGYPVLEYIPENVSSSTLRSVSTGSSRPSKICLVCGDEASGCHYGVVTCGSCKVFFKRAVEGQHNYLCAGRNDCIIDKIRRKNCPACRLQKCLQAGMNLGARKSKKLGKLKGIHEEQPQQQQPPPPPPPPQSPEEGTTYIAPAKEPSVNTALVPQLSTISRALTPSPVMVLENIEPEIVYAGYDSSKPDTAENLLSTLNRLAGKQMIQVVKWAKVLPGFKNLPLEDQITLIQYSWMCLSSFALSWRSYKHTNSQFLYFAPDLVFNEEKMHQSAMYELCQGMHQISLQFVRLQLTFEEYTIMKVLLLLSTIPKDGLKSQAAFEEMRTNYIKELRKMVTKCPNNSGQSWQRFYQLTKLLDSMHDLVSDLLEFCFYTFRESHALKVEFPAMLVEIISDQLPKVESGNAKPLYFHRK
# Protocol: as §1, §2, §3
# [4] = biological target: T2, PR; assay: co-transfection assay, PR agonist
# Protocol: as §1, §2, §3
# [5] = biological target: T4, ER (Homo sapiens, UniProt P03372); assay: co-transfection assay, ER agonist
# T4 construct: expressed in transfected cells; host or cells: CV-1 cells
# Protocol: as §1, §2, §3
# [6] = biological target: T4, ER; assay: co-transfection assay, ER antagonist
# Protocol: as §1, §2, §3
# [7] = biological target: T5, hAR (Homo sapiens, UniProt P10275); assay: co-transfection assay, AR agonist, CV-1 cells; settings: for AR Agonist CV-1 Cells Efficacy (%): relative to maximum LUC production by reference agonist
# T5 construct: expressed in transfected cells; host or cells: CV-1 cells (African green monkey kidney fibroblasts)
# T5 sequence (P10275 1-920): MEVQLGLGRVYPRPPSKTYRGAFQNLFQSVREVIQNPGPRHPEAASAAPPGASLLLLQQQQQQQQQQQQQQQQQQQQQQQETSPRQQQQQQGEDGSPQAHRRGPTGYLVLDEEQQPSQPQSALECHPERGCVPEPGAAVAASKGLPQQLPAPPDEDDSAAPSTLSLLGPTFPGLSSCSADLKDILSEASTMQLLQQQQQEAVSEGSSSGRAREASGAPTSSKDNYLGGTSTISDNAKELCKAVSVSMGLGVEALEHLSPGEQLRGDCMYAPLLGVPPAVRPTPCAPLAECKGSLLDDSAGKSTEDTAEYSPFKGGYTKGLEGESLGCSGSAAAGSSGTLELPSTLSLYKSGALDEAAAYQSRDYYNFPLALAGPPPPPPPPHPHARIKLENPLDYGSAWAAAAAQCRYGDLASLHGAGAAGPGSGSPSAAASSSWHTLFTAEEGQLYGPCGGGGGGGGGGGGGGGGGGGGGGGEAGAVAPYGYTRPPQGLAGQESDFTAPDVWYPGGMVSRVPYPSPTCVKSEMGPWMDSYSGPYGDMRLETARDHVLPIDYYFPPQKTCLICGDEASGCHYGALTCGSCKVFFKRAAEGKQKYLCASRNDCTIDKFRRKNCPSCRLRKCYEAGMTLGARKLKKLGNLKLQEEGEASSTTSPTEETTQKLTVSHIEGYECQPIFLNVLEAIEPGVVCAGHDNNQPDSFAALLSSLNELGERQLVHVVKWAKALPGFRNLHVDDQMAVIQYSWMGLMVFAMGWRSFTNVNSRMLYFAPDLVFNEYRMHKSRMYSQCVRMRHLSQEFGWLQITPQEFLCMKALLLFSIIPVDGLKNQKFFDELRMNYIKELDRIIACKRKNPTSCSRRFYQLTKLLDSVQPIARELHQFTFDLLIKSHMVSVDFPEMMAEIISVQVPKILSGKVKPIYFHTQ
# [8] = biological target: T5, hAR; assay: co-transfection assay, AR antagonist (in presence of DHT), CV-1 cells; settings: for AR Antagonist CV-1 Cells Efficacy (%): hAR in CV-1 cells, maximal inhibition, DHT at EC50
# T4 sequence (P03372 whole entry): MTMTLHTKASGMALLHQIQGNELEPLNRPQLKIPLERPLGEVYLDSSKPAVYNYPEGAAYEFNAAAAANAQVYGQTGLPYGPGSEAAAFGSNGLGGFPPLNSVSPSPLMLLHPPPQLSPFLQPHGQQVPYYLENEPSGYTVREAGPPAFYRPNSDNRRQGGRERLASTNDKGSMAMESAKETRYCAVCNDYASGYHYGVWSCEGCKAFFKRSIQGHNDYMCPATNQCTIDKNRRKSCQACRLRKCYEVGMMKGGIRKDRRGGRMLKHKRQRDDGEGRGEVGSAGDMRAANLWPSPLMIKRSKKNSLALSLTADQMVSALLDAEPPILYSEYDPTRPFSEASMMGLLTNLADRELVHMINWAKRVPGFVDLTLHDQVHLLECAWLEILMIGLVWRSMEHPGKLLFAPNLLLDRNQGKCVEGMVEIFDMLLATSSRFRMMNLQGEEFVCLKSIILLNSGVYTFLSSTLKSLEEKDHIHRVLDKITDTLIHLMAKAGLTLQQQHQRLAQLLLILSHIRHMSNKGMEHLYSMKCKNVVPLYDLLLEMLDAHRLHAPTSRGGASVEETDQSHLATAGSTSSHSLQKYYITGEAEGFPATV
Structure (SMILES),IC50 [1] [µM],IC50 [2] [µM],IC50 [3] [µM],EC50 [4] [µM],"EC50 ([5]; Table 2, read-out: ER Potency Agon) [µM]","IC50 ([6]; Table 2, read-out: ER Potency Antag) [µM]",EC50 [5] [µM],IC50 [6] [µM],"EC50 ([7]; AR Agonist CV-1 Cells Potency (nM), hAR in CV-1 cells) [nM]","EC50 ([7]; AR Potency Agon (nM), Table 2) [nM]",AR Agonist CV-1 Cells Efficacy (%) ([7]; hAR in CV-1 cells),IC50 [8] [µM],AR Antagonist CV-1 Cells Efficacy (%) [8],"IC50 ([8]; read-out: AR Potency Antag, Table 2) [µM]",EC50 [7] [nM]
"C[C@]1(O)CC[C@H]2[C@@H]3CCC4=CC(=O)CC[C@]4(C)[C@@]3(F)[C@@H](O)C[C@@]21C [Fluox, fluoxymesterone]",0.263,0.224,0.193,1.21,,,,,,,,,,,
"CC(C)(O)C(=O)Nc1ccc([N+](=O)[O-])c(C(F)(F)F)c1 [Flut, 2-hydroxyflutamide, reference compound]",,,,,> 10,> 10,,,,,,,,,
"CN1CCOc2cc3[nH]c(=O)cc(C(F)(F)F)c3cc21 [Compound 101, 1,2,3,6-Tetrahydro-1-methyl-9-(trifluoromethyl)-7H-[1,4]oxazino[3,2-g]quinolin-7-one]",6.5,> 10,> 10,> 10,,,> 10,> 10,,,,,,,
"CC1CN(CC(F)(F)F)c2cc3c(C(F)(F)F)cc(=O)[nH]c3cc2O1 (racemic) [Compound 114, (±)-1,2,3,6-Tetrahydro-3-methyl-1-(2,2,2-trifluoroethyl)-9-(trifluoromethyl)-7H-[1,4]oxazino[3,2-g]quinolin-7-one]",> 10,> 10,> 10,> 10,,,> 10,> 10,,,,,,,
"O=c1cc(C(F)(F)F)c2cc3c(cc2[nH]1)OCCN3CC1CC1 [Compound 121, 1-Cyclopropylmethyl-1,2,3,6-tetrahydro-9-(trifluoromethyl)-7H-[1,4]oxazino[3,2-g]quinolin-7-one]",1.05,0.415,2.57,> 10,,,> 10,> 10,,,,,,,
"CCN1CCOc2cc3[nH]c(=O)cc(C(F)(F)F)c3cc21 [Compound 103, 1-Ethyl-1,2,3,6-tetrahydro-9-(trifluoromethyl)-7H-[1,4]oxazino[3,2-g]quinolin-7-one]",> 10,4.5,> 10,> 10,,,> 10,> 10,,,,,,,
"CC1COc2cc3[nH]c(=O)cc(C(F)(F)F)c3cc2N1CC(F)(F)F (racemic) [Compound 123, (±)-1,2,3,6-Tetrahydro-2-methyl-1-(2,2,2-trifluoroethyl)-9-(trifluoromethyl)-7H-[1,4]oxazino[3,2-g]quinolin-7-one]",3.16,2.47,,> 10,,,> 10,> 10,3.4,3.4,91%,> 10,"na (na = not active (i.e. efficacy of < 20 and potency of > 10,000 nM for the cotransfection assay, and Ki > 1000 nM for the binding assay))",> 10,
"O=c1cc(C(F)(F)F)c2cc3c(cc2[nH]1)OCCN3Cc1ccccn1 [Compound 122, 1,2,3,6-Tetrahydro-1-(2-pyridylmethyl)-9-(trifluoromethyl)-7H-[1,4]oxazino[3,2-g]quinolin-7-one]",,,,,,,,,,,"na (na = not active (i.e. efficacy of < 20 and potency of > 10,000 nM for the cotransfection assay, and Ki > 1000 nM for the binding assay))",0.632,75%,,> 10000
